Assay results taken from PubChem BioAssay AID1918934 (Molecular Pharmacology Branch, DTP, NCI, 2023).

System: 292921-168-R-J2-PDC complex spheroid viability
Test: Anticancer human tumor 292921-168-R-J2-PDC patient-derived pancreatic carcinoma cell line growth inhibition
Conditions: for IC50: curve of first compound; for viability, T/C: stronger effect = lower value
Method in brief: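 Complex spheroids of tumor cells with HUVEC and human MSCs, exposed to iadademstat combined with other agents. Each agent tested in half-log steps from near clinical Cmax (else 10 microM top), DMSO ≤0.25%.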

[1] = second compound 0.1 µM, first compound 0.0316 µM
[2] = second compound 0.1 µM, first compound 0.1 µM
[3] = second compound 0.1 µM, first compound 0.316 µM
[4] = second compound 0.1 µM, first compound 1 µM
[5] = second compound 0.1 µM, first compound 3.16 µM
[6] = second compound 0.1 µM, first compound 10 µM
[7] = second compound 0.316 µM, first compound 0.0316 µM
[8] = second compound 0.316 µM, first compound 0.1 µM
[9] = second compound 0.316 µM, first compound 0.316 µM
[10] = second compound 0.316 µM, first compound 1 µM
[11] = second compound 0.316 µM, first compound 3.16 µM
[12] = second compound 0.316 µM, first compound 10 µM
[13] = second compound 1 µM, first compound 0.0316 µM
[14] = second compound 1 µM, first compound 0.1 µM
[15] = second compound 1 µM, first compound 0.316 µM
[16] = second compound 1 µM, first compound 1 µM
[17] = second compound 1 µM, first compound 3.16 µM
[18] = second compound 1 µM, first compound 10 µM
[19] = second compound 3.16 µM, first compound 0.0316 µM
[20] = second compound 3.16 µM, first compound 0.1 µM
[21] = second compound 3.16 µM, first compound 0.316 µM
[22] = second compound 3.16 µM, first compound 1 µM
[23] = second compound 3.16 µM, first compound 3.16 µM
[24] = second compound 3.16 µM, first compound 10 µM
[25] = second compound 10 µM, first compound 0.0316 µM
[26] = second compound 10 µM, first compound 0.1 µM
[27] = second compound 10 µM, first compound 0.316 µM
[28] = second compound 10 µM, first compound 1 µM
[29] = second compound 10 µM, first compound 3.16 µM
[30] = second compound 10 µM, first compound 10 µM
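Also: seven day compound exposure before luminescent viability read.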
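For viability, T/C in this document: 100% = DMSO vehicle control wells.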

For CC(C)c1c(-c2ccccc2)nc2c(C#N)c[nH]n2c1=O + NC1CCC(NC2CC2c2ccccc2)CC1, the IC50 (second compound 0.1 µM) was > 10000 nM, the IC50 (second compound 0.316 µM) was > 10000 nM and the IC50 (second compound 1 µM) was > 10000 nM. The IC50 (second compound 3.16 µM) was 9720 nM, the IC50 (second compound 10 µM) was 1680 nM and the viability, T/C [1] was 63.4%. For the same compound, the viability, T/C [2] was 67.2%, the viability, T/C [3] was 59.7% and the viability, T/C [4] was 70%. It also gave a viability, T/C [5] of 61.1%, a viability, T/C [6] of 57% and a viability, T/C [7] of 63.1%. The viability, T/C [8] was 60.1%, the viability, T/C [9] was 63.6% and the viability, T/C [10] was 64.2%. It also gave a viability, T/C [11] of 64.2%, a viability, T/C [12] of 51.3% and a viability, T/C [13] of 52.7%. For the same compound, the viability, T/C [14] was 55.4%, the viability, T/C [15] was 54.2% and the viability, T/C [16] was 57.5%. It also gave a viability, T/C [17] of 57.4%, a viability, T/C [18] of 51.6% and a viability, T/C [19] of 55.7%. For the same compound, the viability, T/C [20] was 55.3%, the viability, T/C [21] was 52.8% and the viability, T/C [22] was 56.1%. It also gave a viability, T/C [23] of 49%, a viability, T/C [24] of 49.9% and a viability, T/C [25] of 52.9%. It also gave a viability, T/C [26] of 53.8%, a viability, T/C [27] of 53.2% and a viability, T/C [28] of 54.6%. The viability, T/C [29] was 45.6% and the viability, T/C [30] was 40%.

With CC1COCCN1c1cc(-c2ccnn2C)c2ccnc(-c3ccn[nH]3)c2n1 (stereo not given) + NC1CCC(NC2CC2c2ccccc2)CC1 the IC50 (second compound 0.1 µM) was < 3.16 nM, the IC50 (second compound 0.316 µM) was < 3.16 nM and the IC50 (second compound 1 µM) was < 3.16 nM. For the same compound, the IC50 (second compound 3.16 µM) was < 3.16 nM, the IC50 (second compound 10 µM) was < 3.16 nM and the viability, T/C (second compound 0.1 µM, first compound 0.00316 µM) was 14.1%. It also gave a viability, T/C (second compound 0.1 µM, first compound 0.01 µM) of 12.3%, a viability, T/C [1] of 13% and a viability, T/C [2] of 16.4%. The viability, T/C [3] was 18.4%, the viability, T/C [4] was 19.3% and the viability, T/C (second compound 0.316 µM, first compound 0.00316 µM) was 15.7%. The viability, T/C (second compound 0.316 µM, first compound 0.01 µM) was 14.8%, the viability, T/C [7] was 12% and the viability, T/C [8] was 15.7%. It also gave a viability, T/C [9] of 16.9%, a viability, T/C [10] of 18.3% and a viability, T/C (second compound 1 µM, first compound 0.00316 µM) of 14.4%. It also gave a viability, T/C (second compound 1 µM, first compound 0.01 µM) of 15.1%, a viability, T/C [13] of 13.5% and a viability, T/C [14] of 14.2%. It also gave a viability, T/C [15] of 14.8%, a viability, T/C [16] of 17.2% and a viability, T/C (second compound 3.16 µM, first compound 0.00316 µM) of 15.7%. For the same compound, the viability, T/C (second compound 3.16 µM, first compound 0.01 µM) was 15.5%, the viability, T/C [19] was 12.2% and the viability, T/C [20] was 13.5%. It also gave a viability, T/C [21] of 15.3%, a viability, T/C [22] of 16% and a viability, T/C (second compound 10 µM, first compound 0.00316 µM) of 13.7%. For the same compound, the viability, T/C (second compound 10 µM, first compound 0.01 µM) was 14%, the viability, T/C [25] was 12.3% and the viability, T/C [26] was 12.5%. For the same compound, the viability, T/C [27] was 14.2% and the viability, T/C [28] was 17.3%.

In the case of COc1ccc([C@@H](O)c2cc(-c3ncnc4cc(N5CCOCC5)ccc34)c(F)cc2Cl)nn1 + NC1CCC(NC2CC2c2ccccc2)CC1, the IC50 (second compound 0.1 µM) is reported as 205 nM, the IC50 (second compound 0.316 µM) is reported as 191 nM and the IC50 (second compound 1 µM) is reported as 102 nM. For the same compound, the IC50 (second compound 3.16 µM) was 101 nM, the IC50 (second compound 10 µM) was 35 nM and the viability, T/C [1] was 61.8%. The viability, T/C [2] was 61.3%, the viability, T/C [3] was 42.7% and the viability, T/C [4] was 30.4%. For the same compound, the viability, T/C [5] was 19.9%, the viability, T/C [6] was 11.7% and the viability, T/C [7] was 61.1%. For the same compound, the viability, T/C [8] was 57.7%, the viability, T/C [9] was 44.4% and the viability, T/C [10] was 26.2%. The viability, T/C [11] was 17.1%, the viability, T/C [12] was 11.8% and the viability, T/C [13] was 59.9%. It also gave a viability, T/C [14] of 50.4%, a viability, T/C [15] of 38.1% and a viability, T/C [16] of 24.9%. The viability, T/C [17] was 18.4%, the viability, T/C [18] was 11.2% and the viability, T/C [19] was 50%. For the same compound, the viability, T/C [20] was 53.7%, the viability, T/C [21] was 40.4% and the viability, T/C [22] was 27.1%. It also gave a viability, T/C [23] of 16.4%, a viability, T/C [24] of 10.7% and a viability, T/C [25] of 48.6%. The viability, T/C [26] was 50%, the viability, T/C [27] was 36.2% and the viability, T/C [28] was 28.2%. The viability, T/C [29] was 18.1% and the viability, T/C [30] was 11.6%.
